A short description of data set [1]: Calcium liability (tolerance test in mice). Conditions: mouse, in vivo, sc. The text has this: This routine test gives a global picture of calcemic liability. Profound changes in calcium homeostasis strongly affect the weight development of the animals. This parameter was used as a primary test for tolerance. Mice (25-30 g body weight.) received daily subcutaneous administrations of the vitamin D derivative for 4 consecutive days. Body weight was registered just before and at the end of a 5 day treatment period.

The target of a further data set is T1, human VDR (Homo sapiens, UniProt P11473).
T1 construct: expressed in transfected cells; host or cells: COS cells
T1 sequence (P11473 1-427): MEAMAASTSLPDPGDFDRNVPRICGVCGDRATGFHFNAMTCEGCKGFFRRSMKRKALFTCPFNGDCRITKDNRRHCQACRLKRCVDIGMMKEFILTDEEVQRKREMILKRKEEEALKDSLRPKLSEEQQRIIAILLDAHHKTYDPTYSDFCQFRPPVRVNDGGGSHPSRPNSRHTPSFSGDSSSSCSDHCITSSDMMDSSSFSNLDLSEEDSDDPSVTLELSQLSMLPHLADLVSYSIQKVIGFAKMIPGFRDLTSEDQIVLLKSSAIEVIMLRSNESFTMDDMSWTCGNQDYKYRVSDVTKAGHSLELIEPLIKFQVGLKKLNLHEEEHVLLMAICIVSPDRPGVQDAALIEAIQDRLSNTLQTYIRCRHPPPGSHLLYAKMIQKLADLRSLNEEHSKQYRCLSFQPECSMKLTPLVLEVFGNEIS
Description: VDR activation (transcription activation assay; COS cells cotransfected with human VDR and VDRE3-luciferase reporter). In kind it is cell-based. The conditions noted are these: human VDR (pSG5), VDRE3 rat osteocalcin / tk promoter / luciferase reporter, concentration giving half-maximal activity (8-10 fold luciferase induction), read-out: Vitamin D Receptor Activation ED50. The source says:
In order to measure the activation of the vitamin D receptor (VDR) by vitamin D analogs in cells a transcription activation assay was used. COS cells were cotransfected with the human VDR (expressed in pSG5) and a reporter gene containing three response elements (VDRE3) from the rat osteocalcin gene, the thymidine kinase basal promoter, and the luciferase reporter gene.
A general note: Reporter assays use an easily measured gene product as a stand-in for the process of interest.

[2] abbreviates: mice 25-30 g, daily subcutaneous administration for 4 consecutive days, body weight before and at end of 5 day treatment period, read-out: HTD in mice (highest tolerated dose, dose which results in zero weight gain).

Where two headings read alike, the source gives them in different places.

`C=C1/C(=C\C=C2/CCC[C@]3(C)[C@@H]([C@H](C)COC(=O)CC(C)(O)CC)CC[C@@H]23)C[C@@H](O)C[C@@H]1O` (mixture of isomers) [Example 29, 1:1 Mixture of (R)-and-(S)-3-hydroxy-3-methyl-pentanoic acid-(5Z,7E)-(1S,3R,20S)-1,3-dihydroxy-20-methyl-9,10-seco-pregna-5,7,10 (19)-trien-21-yl ester]: the MTD at 120 h in data set [1] stood at 7 mg/kg. For the same molecule, at human VDR, the EC50 is 2.5 nM. For `C[C@H](C(=O)OCC1(O)CCCCCC1)[C@H]1CC[C@H]2/C(=C/C=C3C[C@@H](O)C[C@H](O)C3)CCC[C@]12C` [Example 10, (7E)-(1R,3R,20S)-1,3-Dihydroxy-20-methyl-19-nor-9,10-seco-pregna-5,7-dien-21-oic acid 1-hyddroxy-cycloheptylmethyl ester], the MTD at 120 h in data set [1] (setting [2]) is above 6 mg/kg. At human VDR, the EC50 was 31 nM. `C=C1/C(=C\C=C2/CCC[C@]3(C)[C@@H]([C@@H](C)COC(=O)C(C)(C)C)CC[C@@H]23)C[C@@H](O)C[C@@H]1O` [Example 19, 2,2-Dimethyl-propionic acid-(5Z,7E)-(1S,3R,20R)-1,3-dihydroxy-20-methyl-9,10-seco-pregna-5,7,10 (19)-trien-21-yl ester]: in data set [1], the MTD at 120 h is above 6 mg/kg. The EC50 on human VDR turned out to be 0.28 nM. `C=C1/C(=C\C=C2/CCC[C@]3(C)[C@@H]([C@H](C)COC(=O)C(C)(C)C)CC[C@@H]23)C[C@@H](O)C[C@@H]1O` [Example 22, 2,2-Dimethyl-propionic acid (5Z,7E)-(1R,3R)-1,3-dihydroxy-23,24-dinor-9,10-secochola-5,7-dien-22-yl ester]: in data set [1], the MTD at 120 h was found to be 9 mg/kg. Besides, the EC50 at human VDR is 141 nM. In the case of `C[C@@H](COC(=O)C(C)(C)O)[C@H]1CC[C@H]2/C(=C/C=C3C[C@@H](O)C[C@H](O)C3)CCC[C@]12C` [Example 21, 2-Hydroxy-2-methyl-propionic acid-(7E)-(1R,3R,20R)-1,3-dihydroxy-20-methyl-19-nor-9,10-seco-pregna-5,7-dien-21-yl ester], the MTD at 120 h in data set [1] (setting [2]) is above 9 mg/kg. The EC50 on human VDR amounted to 0.55 nM. On to `C=C1/C(=C\C=C2/CCC[C@]3(C)[C@@H]([C@@H](C)COC(=O)C(C)(C)O)CC[C@@H]23)C[C@@H](O)C[C@@H]1O` [Example 20, 2-Hydroxy-2-methyl-propionic acid-(5Z,7E)-(1S,3R,20R)-1,3-dihydroxy-20-methyl-9,10-seco-pregna-5,7,10 (19)-trien-21-yl ester], for which the MTD at 120 h in data set [1] was above 10 mg/kg. In addition, the EC50 at human VDR worked out at 0.82 nM. In the same order, the values of `C=C1/C(=C\C=C2/CCC[C@]3(C)[C@@H]([C@H](C)COC(=O)C(C)(C)O)CC[C@@H]23)C[C@@H](O)C[C@@H]1O` [Example 23, 2-Hydroxy-2-methyl-propionic acid-(5Z,7E)-(1S,3R,20S)-1,3-dihydroxy-20-methyl-9,10-seco-pregna-5,7,10 (19)-trien-21-yl ester] are above 11 mg/kg and 83 nM. Regarding `C=C1/C(=C\C=C2/CCC[C@]3(C)[C@@H]([C@H](C)CCCC(C)(C)O)CC[C@@H]23)C[C@@H](O)C[C@@H]1O` [Calcitriol, calcitriol, reference compound], the MTD at 120 h in data set [1] (setting [2]) was found to be 0.0005 mg/kg.

On to `C=C1/C(=C\C=C2/CCC[C@]3(C)[C@@H]([C@H](C)C(=O)OCC4(O)CCCCC4)CC[C@@H]23)C[C@@H](O)C[C@@H]1O` [Example 9, (5Z,7E)-(1R,3R,20S)-1,3-Dihydroxy-20-methyl-9,10-seco-pregna-5,7,10-trien-21-oic acid 1-hydroxy-cyclohexylmethyl ester], for which the MTD at 120 h in data set [1] (setting [2]) was 1 mg/kg. Further, the EC50 at human VDR worked out at 5.6 nM.

With `C[C@H](C(=O)OCC1(O)CCCCC1)[C@H]1CC[C@H]2/C(=C/C=C3C[C@@H](O)C[C@H](O)C3)CCC[C@]12C` [Example 8, (7E)-(1R,3R,20S)-1,3-Dihydroxy-20-methyl-19-nor-9,10-seco-pregna-5,7-dien-21-oic acid 1-hydroxy-cyclohexyl methyl ester], the MTD at 120 h in data set [1] (setting [2]) is 1 mg/kg. The EC50 at human VDR amounted to 38 nM. In the same order, the values of `C[C@H](C(=O)OCC1(O)CCCC1)[C@H]1CC[C@H]2/C(=C/C=C3C[C@@H](O)C[C@H](O)C3)CCC[C@]12C` [Example 7, (7E)-(1R,3R,20S)-1,3-Dihydroxy-20-methyl-19-nor-9,10-seco-pregna-5,7-dien-21-oic acid 1-hydroxy-cyclopentylmethyl ester] are above 5 mg/kg and 18 nM. Regarding `C=C1/C(=C\C=C2/CCC[C@]3(C)[C@@H]([C@H](C)COC(=O)CC(C)(O)C(F)(F)F)CC[C@@H]23)C[C@@H](O)C[C@@H]1O` (stereo partly drawn) [Example 28], the MTD at 120 h in data set [1] (setting [2]) was found to be 0.5 mg/kg. The EC50 at human VDR was found to be 0.53 nM.

Regarding `C[C@H](C(=O)OCCC1(O)CCCC1)[C@H]1CC[C@H]2/C(=C/C=C3C[C@@H](O)C[C@H](O)C3)CCC[C@]12C` [Example 11, (7E)-(1R,3R,20S)-1,3-Dihydroxy-20-methyl-19-nor-9,10-seco-pregna-5,7-dien-21-oic acid 2-(1-hyddroxy-cyclopentyl)-ethyl ester], in data set [1] (setting [2]), the MTD at 120 h is above 6 mg/kg. Also, the EC50 at human VDR turned out to be 180 nM. Take `C=C1/C(=C\C=C2/CCC[C@]3(C)[C@@H]([C@H](C)COC(=O)C(O)(CC)CC)CC[C@@H]23)C[C@@H](O)C[C@@H]1O` [Example 24, 2-Ethyl-2-hydroxy-butyric acid-(5Z,7E)-(1S,3R,20S)-1,3-dihydroxy-20-methyl-9,10-seco-pregna-5,7,10 (19)-trien-21-yl ester]: the MTD at 120 h in data set [1] (setting [2]) worked out at 2.5 mg/kg. In addition, the EC50 at human VDR is 18 nM.

The values are drawn from patent US5827883A, “Dermatological use of vitamin D derivatives” (priority 1995, dated 1998).
